The text below walks through data of ChEMBL document CHEMBL4385659, “Essential structure of orexin 1 receptor antagonist YNT-707, Part IV: The role of D-ring in 4,5-epoxymorphinan on the orexin 1 receptor antagonistic activity” (Bioorg Med Chem Lett, 2019).

As usually defined, the Ki is a measure of affinity in units of concentration, obtained from inhibition or displacement. The inhibition is the change of the read-out against control, counted positive when it falls.

The target of test [1] is T1, Orexin/Hypocretin receptor type 1 (Homo sapiens, UniProt O43613).
T1 sequence (O43613 whole entry): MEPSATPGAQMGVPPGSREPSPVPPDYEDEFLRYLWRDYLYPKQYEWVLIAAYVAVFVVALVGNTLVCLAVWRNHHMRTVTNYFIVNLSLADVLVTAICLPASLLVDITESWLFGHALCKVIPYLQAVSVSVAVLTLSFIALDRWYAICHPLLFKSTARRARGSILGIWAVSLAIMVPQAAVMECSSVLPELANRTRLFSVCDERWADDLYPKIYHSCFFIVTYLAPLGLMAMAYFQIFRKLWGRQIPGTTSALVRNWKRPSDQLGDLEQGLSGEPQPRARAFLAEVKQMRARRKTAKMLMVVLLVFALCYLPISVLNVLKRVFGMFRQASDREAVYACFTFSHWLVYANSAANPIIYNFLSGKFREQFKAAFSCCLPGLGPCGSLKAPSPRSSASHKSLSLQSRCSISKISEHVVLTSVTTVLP
In words: Antagonist activity at human OX1R expressed in CHOK1 cells assessed as inhibition of orexin A-induced intracellular Ca2+ release preincubated for 15 mins followed by orexin A addition by Fura 2-AM dye based fluorescence assay based by Cheng-Prusoff equation analysis. It counts as functional, cell-based.

Test [2] addresses T2, Orexin/Hypocretin receptor type 1 (Homo sapiens) (UniProt O43613).
T2 sequence (whole entry): T1 sequence (O43613 whole entry)
In words: Antagonist activity at human OX1R expressed in CHOK1 cells assessed as inhibition of orexin A-induced intracellular Ca2+ release at 10 uM preincubated for 15 mins followed by orexin A addition by Fura 2-AM dye based fluorescence assay […]. The format is functional, cell-based.

As for `COc1ccc2c3c1O[C@@H]1[C@H]3[C@@H](CC[C@H]1N(C)C(=O)/C=C/c1ccoc1)[C@H](N(CC1CC1)S(=O)(=O)c1ccccc1)C2`, the inhibitory constant (Ki) in test [1] came to 0.0209 µM.
On the same count and under the same terms, the value for `COc1ccc2c(c1)[C@H]1C[C@H](N(C)C(=O)/C=C/c3ccoc3)CC[C@@]1(O)[C@H](N(CC1CC1)S(=O)(=O)c1ccccc1)C2` was 0.842 µM; that for `COc1ccc2c3c1O[C@H]1[C@H](N(C)C(=O)/C=C/c4ccoc4)CC[C@](O)([C@@H]31)[C@H](N(CC1CC1)S(=O)(=O)c1ccccc1)C2` was 0.101 µM.
As for `COc1ccc2c3c1O[C@H]1[C@@H](N(C)C(=O)/C=C/c4ccoc4)CC[C@](O)([C@@H]31)[C@H](N(CC1CC1)S(=O)(=O)c1ccccc1)C2`, the inhibition in test [2] was 11%.
